The nature of data set [1]: Toxicity in BALB/c mouse xenografted with mouse CT26 cells assessed as reduction in body weight at 10 mg/kg, ip administered for 7 days and measured on day 7. Type of data set: organism-based. Conditions: in vivo, 168 h, time 7 day.
Data set [2] has as its target T1, Programmed cell death 1 ligand 1 (Homo sapiens, UniProt Q9NZQ7). The data set can be described thus: Antagonist activity at PDL1 overexpressing in IFN-gamma pretreated human LoVo cells assessed as restoration of human Jurkat T cell activation by measuring induction of IL-2 production at 10 ug/ml incubated for 24 hrs by ELISA. Conditions: filed as antagonist, dose 10.0 µg/ml.

Data set [3] is described as follows: Toxicity in BALB/c mouse xenografted with mouse CT26 cells assessed as effect on liver damage at 10 mg/kg, ip administered for 7 days and measured on day 7 by hematoxylin and eosin staining based assay. Type of data set: organism-based. Conditions: in vivo, 168 h, time 7 day.
Data set [4] has as its system CT26. In words: Antitumor activity against mouse CT26 cells xenografted in BALB/c mouse assessed as reduction in tumor growth at 10 mg/kg, ip administered for 7 days and measured on day 7 by caliper analysis. Format: functional, organism-based. Conditions: time 7.0 day.
Data set [5] in a line: Toxicity in BALB/c mouse xenografted with mouse CT26 cells assessed as effect on kidney damage at 10 mg/kg, ip administered for 7 days and measured on day 7 by hematoxylin and eosin staining based assay. Type of data set: organism-based. Conditions: in vivo, 168 h, time 7 day.
Data set [6] in a line: Toxicity in BALB/c mouse xenografted with mouse CT26 cells assessed as GOT level in blood at 10 mg/kg, ip administered for 7 days and measured on day 7 (reference value: 93 +/- 8 U/L). Type of data set: organism-based. Conditions: in vivo, 168 h, time 7 day.
Data set [7] in a line: Toxicity in BALB/c mouse xenografted with mouse CT26 cells assessed as effect on spleen damage at 10 mg/kg, ip administered for 7 days and measured on day 7 by hematoxylin and eosin staining based assay. Conditions: in vivo, 168 h, time 7 day. Type of data set: organism-based.
Data set [8] in a line: Toxicity in BALB/c mouse xenografted with mouse CT26 cells assessed as BUN level in blood at 10 mg/kg, ip administered for 7 days and measured on day 7 (reference value: 76 +/- 5 mg/dl). Type of data set: organism-based. Conditions: in vivo, 168 h, time 7 day.
Data set [9] in a line: Toxicity in BALB/c mouse xenografted with mouse CT26 cells assessed as GPT level in blood at 10 mg/kg, ip administered for 7 days and measured on day 7 (reference value: 50 +/- 7 U/L). Conditions: in vivo, 168 h, time 7 day. Type of data set: organism-based.
In data set [10] the test system is CT26. In words: Antitumor activity against mouse CT26 cells assessed as reduction in cell viability at 10 to 100 ug/ml incubated for 24 to 72 hrs by MTT assay. Type of data set: functional, cell-based. Conditions: dose 10-100 µg/ml, time 24-72 hrs. (In general: Tetrazolium assays rely on reduction of a dye to a coloured formazan, in cell work by metabolically active cells.)

The target of data set [11] is T1, Programmed cell death 1 ligand 1. In words: Antagonist activity at human PDL1 assessed as inhibition of human PD1 interaction with human PDL1 by ELISA. In general terms: An ELISA detects its analyte on a solid surface through an enzyme-linked reagent.

The source made the active and inactive calls. The rule behind the calls is not given here.

The term IC50 denotes the concentration at which inhibition is half-maximal.

T1 sequence (Q9NZQ7 whole entry): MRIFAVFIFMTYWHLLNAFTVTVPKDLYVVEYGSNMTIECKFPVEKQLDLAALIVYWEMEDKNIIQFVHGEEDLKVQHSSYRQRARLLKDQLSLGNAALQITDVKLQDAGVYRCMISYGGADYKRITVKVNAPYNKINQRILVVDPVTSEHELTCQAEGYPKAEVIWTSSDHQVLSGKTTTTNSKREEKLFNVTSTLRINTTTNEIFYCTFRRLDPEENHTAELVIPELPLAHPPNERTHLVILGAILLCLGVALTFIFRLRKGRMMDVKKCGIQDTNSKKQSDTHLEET

Turning to `CC[C@H](C)[C@H](NC(=O)[C@H](C)NC(=O)CN)C(=O)N[C@@H](CO)C(=O)N[C@@H](CC(C)C)C(=O)N[C@@H](C)C(=O)N1CCC[C@H]1C(=O)N[C@@H](CCCCN)C(=O)N[C@@H](CC(C)C)C(=O)N[C@@H](CCC(N)=O)C(=O)N[C@H](C(=O)N[C@@H](CC(N)=O)C(=O)N[C@H](CCC(=O)O)C(=O)O)[C@@H](C)CC`, the Activity result in data set [1] is “Non-Toxic”; in data set [3], “Non-Toxic”; in data set [5], “Non-Toxic”; in data set [6], 82 U/L; in data set [7], “Non-Toxic”; in data set [8] it was 69 mg/dL. Moreover, the Activity in data set [9] came out at 54 U/L. Besides, the IL-2 induction activity result in [2] is “Active”. Further, in the data set on CT26 [4], the TGI result was “Active”. Moreover, in the data set with CT26 [10], the outcome was inactive. Moreover, the IC50 in data set [11] turned out to be 1.56 µM.
As for H-CGAISLAPKAQIKES-OH, the IC50 in data set [11] is 19.2 µM.
As for H-CGAISLAPKLQINES-OH, the IC50 in [11] amounted to 80.7 µM.
As to `CC[C@H](C)[C@H](NC(=O)[C@H](C)NC(=O)CN)C(=O)N[C@@H](CO)C(=O)N[C@@H](CC(C)C)C(=O)N[C@@H](C)C(=O)N1CCC[C@H]1C(=O)N[C@@H](CCCCN)C(=O)N[C@@H](CC(C)C)C(=O)N[C@@H](CCC(N)=O)C(=O)N[C@H](C(=O)N[C@@H](CC(N)=O)C(=O)N[C@@H](CCC(=O)O)C(=O)O)[C@@H](C)CC`, in data set [1], the Activity result is “Non-Toxic”. Also, the IL-2 induction activity result in data set [2] is “Active”. For the same compound, the TGI result with CT26 [4] is “inactive”. In the data set with CT26 [10], the result was inactive. The IC50 in data set [11] came to 5.6 µM.
Turning to H-GAISLAPKLQIND-OH, the Activity result in [1] is listed as “Non-Toxic”. For the same compound, the IL-2 induction activity result in data set [2] is “Active”. Further, the TGI entry in the data set on CT26 [4] was “inactive”. The result in the data set with CT26 [10] was inactive. The IC50 in data set [11] is 4.4 µM.
With `CC[C@H](C)[C@@H]1NC(=O)[C@H](C)NC(=O)CNC(=O)CNC(=O)[C@@H](CCC(=O)O)NC(=O)[C@H](CC(N)=O)NC(=O)[C@H]([C@@H](C)CC)NC(=O)[C@H](CCC(N)=O)NC(=O)[C@H](CC(C)C)NC(=O)[C@H](CCCCN)NC(=O)[C@@H]2CCCN2C(=O)[C@H](C)NC(=O)[C@H](CC(C)C)NC(=O)[C@H](CO)NC1=O`, the Activity entry was “Non-Toxic” in data set [1]; “Non-Toxic” in [3]; “Non-Toxic” in data set [5]; 97 U/L in [6]; “Non-Toxic” in data set [7]; 81 mg/dL in data set [8]. In data set [9], the Activity was found to be 51 U/L. Moreover, in data set [2], the IL-2 induction activity entry is “Active”. Further, in the data set on CT26 [4], the TGI entry was “Active”. Besides, the outcome in the data set with CT26 [10] was inactive. Moreover, the IC50 in data set [11] came to 0.71 µM.
Regarding H-CGAISLAPKLQIKES-OH, in data set [11], the IC50 turned out to be 93.5 µM.

These data come from ChEMBL document CHEMBL4680328, “Design, synthesis and evaluation of PD-L1 peptide antagonists as new anticancer agents for immunotherapy” (Bioorg Med Chem, 2021).
